{
  "source": "patent US20120231141A1",
  "about": "“BITTERNESS-IMPROVING AGENT FOR BITTER FOOD AND DRINK AND ASTRINGENCY-IMPROVING AGENT FOR ASTRINGENT FOOD AND DRINK” (priority 2009, published 2012)",
  "key": {"[1]": {"experiment": "Bitterness evaluation of carbonated water (flavor comparison by 10 panelists)", "type": "in vivo", "details": "for A: the number of panelists who felt no difference from sedanenolide-free / B: the number of panelists who felt some reduction in bitterness / Flavor judgment: the number of panelists who judged it as most proper bitterness / N: the number of panelists who hardly felt bitterness: 10 panelists", "procedure": "Sedanenolide was added as a bitterness-improving agent (masking agent for bitterness) of the present invention to sufficiently deaerated pure water at the concentrations shown in the following Table 4, and then carbon dioxide gas was sealed in each bottle at a pressure of 294 KPa to obtain carbonated water of the present invention."}, "[2]": {"experiment": "Astringency evaluation of green tea drink (flavor comparison by 10 panelists)", "type": "in vivo", "details": "for A: the number of panelists who felt no difference from sedanenolide-free / B: the number of panelists who felt some reduction in astringency / Flavor judgment: the number of panelists who judged it as most proper astringency / N: the number of panelists who hardly felt astringency: 10 panelists", "procedure": "Five thousand grams of hot water (containing 0.03% of sodium ascorbate) of 95° C. was added to 100 g of domestic green tea (second picking tea), followed by extraction for 5 min while sometimes stirring. Subsequently, solid-liquid separation with flannel filter was performed to obtain 4500 g of an extract (Bx 0.7°). This extract was adjusted to Bx 0.5° with deionized water to obtain green tea extract having strong astringency. Sedanenolide was added as a taste-improving agent (masking agent for astringency) of the present invention to the resulting extract at the concentrations shown in the following Table 4 to obtain green tea drinks."}, "[3]": {"details": "sedanenolide 0.01 ppb in carbonated water"}, "[4]": {"details": "sedanenolide 0.01 ppm in carbonated water"}, "[5]": {"details": "sedanenolide 0.1 ppb in carbonated water"}, "[6]": {"details": "sedanenolide 0.1 ppm in carbonated water"}, "[7]": {"details": "sedanenolide 1 ppb in carbonated water"}, "[8]": {"details": "sedanenolide 1 ppm in carbonated water"}, "[9]": {"details": "sedanenolide 1 ppt in carbonated water"}, "[10]": {"details": "sedanenolide 10 ppm in carbonated water"}, "[11]": {"details": "sedanenolide 0.01 ppb in green tea drink having strong astringency"}, "[12]": {"details": "sedanenolide 0.01 ppm in green tea drink having strong astringency"}, "[13]": {"details": "sedanenolide 0.1 ppb in green tea drink having strong astringency"}, "[14]": {"details": "sedanenolide 0.1 ppm in green tea drink having strong astringency"}, "[15]": {"details": "sedanenolide 1 ppb in green tea drink having strong astringency"}, "[16]": {"details": "sedanenolide 1 ppm in green tea drink having strong astringency"}, "[17]": {"details": "sedanenolide 1 ppt in green tea drink having strong astringency"}, "[18]": {"details": "sedanenolide 10 ppm in green tea drink having strong astringency"}},
  "data": [
    {"smiles": "CCCC[C@@H]1OC(=O)C2=C1CCC=C2", "note": "[sedanenolide]", "values": [
      {"measurement": "overall result of bitterness masking", "setting": "[1]; amount of sedanenolide about 0.1 ppb to 1 ppm, carbonated water", "result": "particularly good results were obtained"},
      {"measurement": "bitterness of carbonated water (judgment)", "setting": "[1]; carbonated water containing 0.01 ppb to 10 ppm of sedanenolide", "result": "masked"},
      {"measurement": "A: the number of panelists who felt no difference from sedanenolide-free", "setting": "[1]; [3]", "result": 7},
      {"measurement": "B: the number of panelists who felt some reduction in bitterness", "setting": "[1]; [3]", "result": 3},
      {"measurement": "Flavor judgment: the number of panelists who judged it as most proper bitterness", "setting": "[1]; [3]", "result": 0},
      {"measurement": "N: the number of panelists who hardly felt bitterness", "setting": "[1]; [3]", "result": 0},
      {"measurement": "reduction in bitterness at low concentration", "setting": "[1]; sedanenolide 0.01 ppb, carbonated water", "result": "some panelists felt some reduction in bitterness"},
      {"measurement": "A: the number of panelists who felt no difference from sedanenolide-free", "setting": "[1]; [4]", "result": 2},
      {"measurement": "B: the number of panelists who felt some reduction in bitterness", "setting": "[1]; [4]", "result": 2},
      {"measurement": "Flavor judgment: the number of panelists who judged it as most proper bitterness", "setting": "[1]; [4]", "result": 1},
      {"measurement": "N: the number of panelists who hardly felt bitterness", "setting": "[1]; [4]", "result": 6},
      {"measurement": "A: the number of panelists who felt no difference from sedanenolide-free", "setting": "[1]; [5]", "result": 5},
      {"measurement": "B: the number of panelists who felt some reduction in bitterness", "setting": "[1]; [5]", "result": 5},
      {"measurement": "Flavor judgment: the number of panelists who judged it as most proper bitterness", "setting": "[1]; [5]", "result": 0},
      {"measurement": "N: the number of panelists who hardly felt bitterness", "setting": "[1]; [5]", "result": 0},
      {"measurement": "A: the number of panelists who felt no difference from sedanenolide-free", "setting": "[1]; [6]", "result": 0},
      {"measurement": "B: the number of panelists who felt some reduction in bitterness", "setting": "[1]; [6]", "result": 3},
      {"measurement": "Flavor judgment: the number of panelists who judged it as most proper bitterness", "setting": "[1]; [6]", "result": 4},
      {"measurement": "N: the number of panelists who hardly felt bitterness", "setting": "[1]; [6]", "result": 7},
      {"measurement": "A: the number of panelists who felt no difference from sedanenolide-free", "setting": "[1]; [7]", "result": 4},
      {"measurement": "B: the number of panelists who felt some reduction in bitterness", "setting": "[1]; [7]", "result": 6},
      {"measurement": "Flavor judgment: the number of panelists who judged it as most proper bitterness", "setting": "[1]; [7]", "result": 0},
      {"measurement": "N: the number of panelists who hardly felt bitterness", "setting": "[1]; [7]", "result": 0},
      {"measurement": "A: the number of panelists who felt no difference from sedanenolide-free", "setting": "[1]; [8]", "result": 0},
      {"measurement": "B: the number of panelists who felt some reduction in bitterness", "setting": "[1]; [8]", "result": 3},
      {"measurement": "Flavor judgment: the number of panelists who judged it as most proper bitterness", "setting": "[1]; [8]", "result": 5},
      {"measurement": "N: the number of panelists who hardly felt bitterness", "setting": "[1]; [8]", "result": 7},
      {"measurement": "A: the number of panelists who felt no difference from sedanenolide-free", "setting": "[1]; [9]", "result": 10},
      {"measurement": "B: the number of panelists who felt some reduction in bitterness", "setting": "[1]; [9]", "result": 0},
      {"measurement": "Flavor judgment: the number of panelists who judged it as most proper bitterness", "setting": "[1]; [9]", "result": 0},
      {"measurement": "N: the number of panelists who hardly felt bitterness", "setting": "[1]; [9]", "result": 0},
      {"measurement": "A: the number of panelists who felt no difference from sedanenolide-free", "setting": "[1]; [10]", "result": 0},
      {"measurement": "B: the number of panelists who felt some reduction in bitterness", "setting": "[1]; [10]", "result": 2},
      {"measurement": "Flavor judgment: the number of panelists who judged it as most proper bitterness", "setting": "[1]; [10]", "result": 0},
      {"measurement": "N: the number of panelists who hardly felt bitterness", "setting": "[1]; [10]", "result": 8},
      {"measurement": "overall result of astringency masking", "setting": "[2]; amount of sedanenolide about 0.1 ppb to 1 ppm, green tea drink", "result": "particularly good results were obtained"},
      {"measurement": "astringency of green tea drink (judgment)", "setting": "[2]; green tea drink containing 0.01 ppb to 10 ppm of sedanenolide", "result": "masked"},
      {"measurement": "A: the number of panelists who felt no difference from sedanenolide-free", "setting": "[2]; [11]", "result": 8},
      {"measurement": "B: the number of panelists who felt some reduction in astringency", "setting": "[2]; [11]", "result": 2},
      {"measurement": "Flavor judgment: the number of panelists who judged it as most proper astringency", "setting": "[2]; [11]", "result": 0},
      {"measurement": "N: the number of panelists who hardly felt astringency", "setting": "[2]; [11]", "result": 0},
      {"measurement": "reduction in bitterness at low concentration", "setting": "[2]; sedanenolide 0.01 ppb, green tea drink having strong astringency", "result": "some panelists felt some reduction in bitterness"},
      {"measurement": "A: the number of panelists who felt no difference from sedanenolide-free", "setting": "[2]; [12]", "result": 3},
      {"measurement": "B: the number of panelists who felt some reduction in astringency", "setting": "[2]; [12]", "result": 6},
      {"measurement": "Flavor judgment: the number of panelists who judged it as most proper astringency", "setting": "[2]; [12]", "result": 2},
      {"measurement": "N: the number of panelists who hardly felt astringency", "setting": "[2]; [12]", "result": 1},
      {"measurement": "A: the number of panelists who felt no difference from sedanenolide-free", "setting": "[2]; [13]", "result": 6},
      {"measurement": "B: the number of panelists who felt some reduction in astringency", "setting": "[2]; [13]", "result": 3},
      {"measurement": "Flavor judgment: the number of panelists who judged it as most proper astringency", "setting": "[2]; [13]", "result": 0},
      {"measurement": "N: the number of panelists who hardly felt astringency", "setting": "[2]; [13]", "result": 1},
      {"measurement": "A: the number of panelists who felt no difference from sedanenolide-free", "setting": "[2]; [14]", "result": 0},
      {"measurement": "B: the number of panelists who felt some reduction in astringency", "setting": "[2]; [14]", "result": 3},
      {"measurement": "Flavor judgment: the number of panelists who judged it as most proper astringency", "setting": "[2]; [14]", "result": 5},
      {"measurement": "N: the number of panelists who hardly felt astringency", "setting": "[2]; [14]", "result": 7},
      {"measurement": "A: the number of panelists who felt no difference from sedanenolide-free", "setting": "[2]; [15]", "result": 5},
      {"measurement": "B: the number of panelists who felt some reduction in astringency", "setting": "[2]; [15]", "result": 5},
      {"measurement": "Flavor judgment: the number of panelists who judged it as most proper astringency", "setting": "[2]; [15]", "result": 0},
      {"measurement": "N: the number of panelists who hardly felt astringency", "setting": "[2]; [15]", "result": 0},
      {"measurement": "A: the number of panelists who felt no difference from sedanenolide-free", "setting": "[2]; [16]", "result": 0},
      {"measurement": "B: the number of panelists who felt some reduction in astringency", "setting": "[2]; [16]", "result": 3},
      {"measurement": "Flavor judgment: the number of panelists who judged it as most proper astringency", "setting": "[2]; [16]", "result": 3},
      {"measurement": "N: the number of panelists who hardly felt astringency", "setting": "[2]; [16]", "result": 7},
      {"measurement": "A: the number of panelists who felt no difference from sedanenolide-free", "setting": "[2]; [17]", "result": 10},
      {"measurement": "B: the number of panelists who felt some reduction in astringency", "setting": "[2]; [17]", "result": 0},
      {"measurement": "Flavor judgment: the number of panelists who judged it as most proper astringency", "setting": "[2]; [17]", "result": 0},
      {"measurement": "N: the number of panelists who hardly felt astringency", "setting": "[2]; [17]", "result": 0},
      {"measurement": "A: the number of panelists who felt no difference from sedanenolide-free", "setting": "[2]; [18]", "result": 0},
      {"measurement": "B: the number of panelists who felt some reduction in astringency", "setting": "[2]; [18]", "result": 2},
      {"measurement": "Flavor judgment: the number of panelists who judged it as most proper astringency", "setting": "[2]; [18]", "result": 0},
      {"measurement": "N: the number of panelists who hardly felt astringency", "setting": "[2]; [18]", "result": 8}
    ]}
  ]
}
